According to US20110021565A1, “PIPERIDINE DERIVATIVES AS NK3 ANTAGONISTS” (priority 2007, published 2011):
Like-named read-outs stand apart in the source and are kept apart here.

How the values were obtained:
[1] = test system: symptoms of schizophrenia; conditions: phase II trial, cited from earlier work
[2] = target: T1, recombinant human NK3 receptor (Homo sapiens, UniProt P29371); assay: [3H]SR142801 competition binding assay
T1 construct: expressed in transfected cells; host or cells: HEK293 cells, transient expression; membrane preparation
T1 sequence (P29371 1-465): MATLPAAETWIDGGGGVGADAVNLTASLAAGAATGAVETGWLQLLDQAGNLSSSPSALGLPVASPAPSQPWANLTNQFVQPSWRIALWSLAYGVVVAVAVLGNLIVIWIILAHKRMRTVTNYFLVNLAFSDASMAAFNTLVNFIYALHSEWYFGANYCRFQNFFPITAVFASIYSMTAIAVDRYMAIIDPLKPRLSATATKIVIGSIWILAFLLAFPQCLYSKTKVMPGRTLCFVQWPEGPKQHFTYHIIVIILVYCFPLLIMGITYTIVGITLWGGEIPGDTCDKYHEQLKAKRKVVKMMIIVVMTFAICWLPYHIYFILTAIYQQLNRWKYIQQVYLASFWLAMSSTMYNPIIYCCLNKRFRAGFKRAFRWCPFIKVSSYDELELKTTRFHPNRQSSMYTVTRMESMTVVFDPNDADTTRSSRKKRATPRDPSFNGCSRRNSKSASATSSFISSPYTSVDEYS
Procedure, shortened: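 Ki derived by Cheng-Prusoff from Hill-fitted IC50 curves, duplicates, 10 μM SB222200 defining nonspecific binding. Radioligand used at KD concentration against compound at 0.0003-10 μM; transiently transfected HEK293 membranes, 5 μg/well, 75 min room temperature, Tris-HCl/MnCl2/phosphoramidon/BSA pH 7.4. Filter-bound counts read by scintillation.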

[3] = [3H]SR142801, membranes of HEK293 cells transiently expressing recombinant human NK3 receptor, read-out: hNK3 Ki
[4] = representative compounds, [3H]SR142801, HEK293 membranes, human NK3 receptor, read-out: Ki NK3 h

Q: Which results are given for `CC(=O)N(C)C1(c2ccccc2)CCN(CCC[C@]2(c3ccc(Cl)c(Cl)c3)CCCN(C(=O)c3ccccc3)C2)CC1` [SR 142,801, Osanetant]?
A: activity on positive symptoms of schizophrenia ([1]; altered behaviour, delusion, hallucinations, extreme emotions, excited motor activity, incoherent speech): active on positive symptoms of schizophrenia; activity on negative symptoms of schizophrenia ([1]; depression, anhedonia, social isolation, memory and attention deficits): inactive in the treatment of negative symptoms

Q: For `CN(Cc1ccc(Cl)cc1)C(=O)C(CCN1CCC(N2CCCC2=O)CC1)c1ccc(Cl)c(Cl)c1` (stereo not shown) [Example 115, N-(4-Chloro-benzyl)-2-(3,4-dichloro-phenyl)-N-methyl-4-[4-(2-oxo-pyrrolidin-1-yl)-piperidin-1-yl]-butyramide], which Ki [2, 3] is on record?
A: 8.1 nM

Q: What about the Ki [2, 4] of the same molecule?
A: 8.1 nM

Q: Which Ki [2, 3] does the source give for `C[C@](CCN1CCC(N2CCCC2=O)CC1)(C(=O)N[C@H](CO)c1ccc(Cl)c(Cl)c1)c1ccc(Cl)c(Cl)c1` (single isomer, unassigned) [Example 120, (R or S)-2-(3,4-Dichloro-phenyl)-N-[(S or R)-1-(3,4-dichloro-phenyl)-2-hydroxy-ethyl]-2-methyl-4-[4-(2-oxo-pyrrolidin-1-yl)-piperidin-1-yl]-butyramide] here?
A: 2 nM

Q: What about the Ki [2, 4] of the same molecule?
A: 2 nM

Q: Which results are given for `CC[C@H](NC(=O)C(C)(CCN1CCC(N(CC)C(C)=O)CC1)c1ccc(Cl)c(Cl)c1)c1ccccc1` (stereo partly drawn) [Example 168, 4-[4-(Acetyl-ethyl-amino)-piperidin-1-yl]-2-(3,4-dichloro-phenyl)-2-methyl-N-((S)-1-phenyl-propyl)-butyramide]?
A: Ki [2, 3]: 3 nM; Ki [2, 4]: 3 nM

Q: Which Ki [2, 3] does the source give for `CN(Cc1cccc(Cl)c1)C(=O)C(C)(CCN1CCC(N2CCCC2=O)CC1)c1ccc(Cl)c(Cl)c1` (stereo not shown) [Example 87, N-(3-Chloro-benzyl)-2-(3,4-dichloro-phenyl)-2,N-dimethyl-4-[4-(2-oxo-pyrrolidin-1-yl)-piperidin-1-yl]-butyramide] here?
A: 4.6 nM

Q: What about the Ki [2, 4] of the same molecule?
A: 4.6 nM

Q: For `CC(CCN1CCC(N2CCCC2=O)CC1)(C(=O)N[C@H](CO)c1ccc(Cl)c(Cl)c1)c1ccc(Cl)c(Cl)c1` (single isomer, unassigned; diastereoisomer 2) [Example 98, 2-(3,4-Dichloro-phenyl)-N-[1-(3,4-dichloro-phenyl)-2-hydroxy-ethyl]-2-methyl-4-[4-(2-oxo-pyrrolidin-1-yl)-piperidin-1-yl]-butyramide; diastereoisomer 2], which Ki [2, 3] is on record?
A: 49.9 nM

Q: Which Ki [2, 3] does the source give for `CC(CCN1CCC(NS(C)(=O)=O)CC1)(C(=O)NCc1ccc(Cl)c(F)c1)c1ccc(Cl)c(Cl)c1` (stereo not shown) [Example 22, N-(4-Chloro-3-fluoro-benzyl)-2-(3,4-dichloro-phenyl)-4-(4-methanesulfonyl-amino-piperidin-1-yl)-2-methyl-butyramide] here?
A: 70.8 nM

Q: Which Ki [2, 3] does the source give for `CN(Cc1cccc(Cl)c1)C(=O)C(C)(CCN1CCC(NS(C)(=O)=O)CC1)c1ccc(Cl)c(Cl)c1` (stereo not shown) [Example 29, N-(3-Chloro-benzyl)-2-(3,4-dichloro-phenyl)-4-(4-methanesulfonyl-amino-piperidin-1-yl)-2,N-dimethyl-butyramide] here?
A: 48.5 nM

Q: For `CN(Cc1ccc(C(F)(F)F)c(F)c1)C(=O)C(C)(CCN1CCC(NS(C)(=O)=O)CC1)c1ccc(Cl)c(Cl)c1` (stereo not shown) [Example 9, 2-(3,4-Dichloro-phenyl)-N-(3-fluoro-4-trifluoromethyl-benzyl)-4-(4-methanesulfonyl-amino-piperidin-1-yl)-2,N-dimethyl-butyramide], which Ki [2, 3] is on record?
A: 30 nM

Q: Which Ki [2, 3] does the source give for `CCN(C1CCN(CCC(C)(C(=O)N(C)Cc2ccc(C(F)(F)F)c(F)c2)c2ccc(Cl)c(Cl)c2)CC1)S(C)(=O)=O` (stereo not shown) [Example 69, 2-(3,4-Dichloro-phenyl)-4-[4-(ethyl-methanesulfonyl-amino)-piperidin-1-yl]-N-(3-fluoro-4-trifluoromethyl-benzyl)-2,N-dimethyl-butyramide] here?
A: 2.4 nM

Q: What about the Ki [2, 4] of the same molecule?
A: 2.4 nM

Q: What does the source list for `CCN(C(C)=O)C1CCN(CCC(C)(C(=O)N[C@@H](CO)c2ccc(F)cc2)c2ccc(Cl)c(Cl)c2)CC1` (single isomer, unassigned; epimer 1) [Example 166]?
A: Ki [2, 3]: 2.2 nM; Ki [2, 4]: 2.2 nM

Q: With `CN(Cc1ccc(F)c(C(F)(F)F)c1)C(=O)C(C)(CCN1CCC(NS(C)(=O)=O)CC1)c1ccc(Cl)c(Cl)c1` (stereo not shown) [Example 3, 2-(3,4-Dichloro-phenyl)-N-(4-fluoro-3-trifluoromethyl-benzyl)-4-(4-methanesulfonyl-amino-piperidin-1-yl)-2,N-dimethyl-butyramide] as the molecule, how does the Ki [2, 3] read?
A: 23.2 nM
